How the values were obtained:
[1] = test system: Rat Peritoneal Macrophages; test: Phagocytic capability of rat peritoneal macrophages (opsonized yeast ingestion); assay type: cell-based, Sprague Dawley rats
Description: Resident peritoneal macrophages have very little phagocytic activity. Exposure of macrophages to inflammatory or activating agents will increase this macrophage function. Resident peritoneal macrophages were harvested from C57B1/6 mice or Sprague Dawley rats and resuspended at a concentration of 1×10^6 cells/ml in phosphate buffered saline (PBS). Five separate 0.5 ml cell aliquots were placed on a glass coverslip in a 35 mm petri dish. Prior to incubation, either 0.5 ml of PBS, AII, or AII analogues or fragments at between 1-1000 ug/ml final concentration was added to the individual cover slips. The dishes containing the cover slips were then incubated at 37° C. for 4 hours, after which the cover slips were washed 3 to 6 times with PBS. Opsonized yeast particles (Sigma Chemical Co.) (yeast opsonized with adult serum from the same species as that under study) were added to the cover slips and incubated for 2 hours, after which the cover slips were again washed with PBS and inverted onto a glass slide. The number of macrophages that ingested yeast and the number of yeast per macrophage ingested was then determined microscopically. At least 100 macrophages per coverslip were counted. The data from this study are summarized in Tables 3 and 4 and FIGS. 1 and 2.

[2] = test system: human peripheral blood mononuclear cells (PBMC); test: Respiratory burst (hydrogen peroxide generation) in human PBMC; assay type: cell-based; details: alone and in response to PMA; 4 hours exposure; five donors
Description: The respiratory burst of leukocytes (macrophages and polymorphonuclear neutrophils) is one component of the mediator system used to kill bacteria. As with phagocytosis, the level of this respiratory burst activity in resident macrophages is low. […] Studies were conducted to assess the effect of in vitro exposure of murine or rat peritoneal macrophages and human peripheral blood mononuclear cells (PBMC) to various concentrations of AII on the capacity to generate hydrogen peroxide via the respiratory burst system. For the human studies, five different donors were examined.
The murine or rat peritoneal cells were harvested by lavage with 5-15 ml of cold PBS with 0.5% bovine serum albumin. The human PBMC were harvested by venipuncture from normal human volunteers and isolated from peripheral blood by Ficoll Hypaque density centrifugation. After isolation, the cells were resuspended at 1×10^6 cells/ml and placed at 100 μl per well into 96 well plates. The cells were incubated with various concentrations of AII or AII analogues and fragments for 4 hours at 37° C. The cells were then preloaded with a fluorescent probe for hydrogen peroxide, 2,7 dichlorofluorescein acetate, which is nonfluorescent in the absence of hydrogen peroxide. Fifteen minutes later, 10 ng/ml of phorbol myristate acetate (+PMA) or PBS (−PMA) was added to stimulate the production of hydrogen peroxide. One hour after stimulation the level of fluorescence produced was measured on a Cytofluor 2350 multiwell fluorometer.

rat bone marrow MSC = test: Alkaline phosphatase expression by MSC in osteogenic medium; assay type: cell-based, Sprague Dawley rats; details: osteogenic medium 4 days
Description: Bone marrow from female Sprague Dawley rats were harvested by flushing the femur with medium. The cells were placed in culture dishes […], allowed to adhere overnight, and then placed in DMEM-LG medium containing antibiotics and 10% fetal calf serum together with varying concentrations of AII. At various times after culture initiation, the cells were washed with Tyrode's buffer and placed in osteogenic medium (DMEM-LG containing 10% fetal calf serum, 100 nM dexamethasone and 0.05 mM ascorbic acid) for 4 days prior to assessment of the level of alkaline phosphatase activity per well. Briefly, the wells were washed with Tyrode's buffer and 1 ml alkaline phosphatase substrate solution (50 mM glycine, pH 10.5, containing 1 mM magnesium chloride and 2.5 mM p-nitrophenyl phosphate) to each well. Fifteen minutes after addition of this aqueous substrate, the buffer was removed from the culture and mixed with 1 ml of 1N sodium hydroxide to stop the reaction. The absorbance of the resultant mixture at […] was then determined via spectroscopy. The level of alkaline phosphatase activity is expressed as the level of absorbance per culture dish.

[3] = test system: murine mesenchymal stem cells; test: GM-CSF secretion by mouse mesenchymal stem cells (ELISA); assay type: cell-based, C57B1/6 mice; details: 0.01 to 100 μg/ml; 24, 48 or 72 hours
Description: One factor whose production is induced during differentiation of mesenchymal stromal cells is granulocyte-macrophage-colony stimulating factor (GM-CSF). Therefore, the effect of AII on the differentiation of mesenchymal cells was assessed by the production of colony stimulating factors, specifically GM-CSF, into the culture supernatant.
Bone marrow cells were harvested from the femur and tibia of C57B1/6 mice (Battin and Kingdom, Gilroy, Calif.) with saline containing 2% fetal calf serum. Thereafter, the red blood cells were lysed by brief exposure to a hypotonic ammonium chloride solution. The nucleated cells were then resuspended in 3 ml of […] phosphate buffered saline (PBS; pH 7.2) and rapidly layered over 7 ml of Percoll (70% Percoll gradient separation). This combination of nucleated bone marrow cells and Percoll were centrifuged at 1800 rpm for 20 minutes. After centrifugation, the cells in the upper 25% of the Percoll gradient were harvested and washed 3 times with PBS to remove excess Percoll. The cells were then resuspended at 4×10^5 cells/ml in alpha minimal essential medium containing 10% horse serum, 10% fetal calf serum and 5×10^−5 M 2-mercaptoethanol. […]
After all samples were collected, the level of GM-CSF in the supernatant was measured by Quantikine ELISA (R & D Systems, Minneapolis, Minn.) according to the manufacturer's instructions.

AT2 receptor = target: T1, AT2 receptor (Homo sapiens, UniProt P50052); details: cited from earlier work
T1 sequence (P50052 1-363): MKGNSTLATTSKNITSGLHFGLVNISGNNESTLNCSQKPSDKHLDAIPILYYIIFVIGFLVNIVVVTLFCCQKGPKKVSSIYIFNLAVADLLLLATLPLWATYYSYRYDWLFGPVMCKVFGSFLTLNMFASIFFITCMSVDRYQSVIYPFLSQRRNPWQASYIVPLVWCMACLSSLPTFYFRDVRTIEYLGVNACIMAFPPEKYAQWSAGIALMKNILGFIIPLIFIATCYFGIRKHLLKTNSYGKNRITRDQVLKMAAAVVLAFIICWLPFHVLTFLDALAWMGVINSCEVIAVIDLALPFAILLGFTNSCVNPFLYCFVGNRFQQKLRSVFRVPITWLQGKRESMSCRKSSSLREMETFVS

Substance: Asp-Arg-Val-Tyr-Ile-His-Pro-Phe (DRVYIHPF; printed: Asp-Arg-Val-Tyr-Ile-His-Pro-Phe) [AII, octapeptide present in humans and other species; known pressor agent, commercially available]
- #/Cell ([1]; peptide 100 μg/ml): 1.14
- % w/Yeast ([1]; peptide 100 μg/ml): 35.7%
- Number of Macrophages with Yeast (Yeast Number) 0 ([1]; peptide 100 μg/ml): 90
- Number of Macrophages with Yeast (Yeast Number) 1-3 ([1]; peptide 100 μg/ml): 30
- Number of Macrophages with Yeast (Yeast Number) ≧7 ([1]; peptide 100 μg/ml): 0
- #/Cell ([1]; peptide 1000 μg/ml): 2.86
- % w/Yeast ([1]; peptide 1000 μg/ml): 70.4%
- Number of Macrophages with Yeast (Yeast Number) 0 ([1]; peptide 1000 μg/ml): 50
- Number of Macrophages with Yeast (Yeast Number) 1-3 ([1]; peptide 1000 μg/ml): 54
- Number of Macrophages with Yeast (Yeast Number) 4-6 ([1]; peptide 1000 μg/ml): 40
- Number of Macrophages with Yeast (Yeast Number) ≧7 ([1]; peptide 1000 μg/ml): 25
- ability of leukocytes to generate hydrogen peroxide [2]: increased the ability of leukocytes to generate hydrogen peroxide both alone and in response to stimulation with PMA
- proliferation of cells that express alkaline phosphatase (rat bone marrow MSC): can accelerate the proliferation of cells that express alkaline phosphatase
- production of GM-CSF [3]: induced an increase
- affinity for AT2 relative to AT1 (AT2 receptor): 100 times

Reference: patent US20020146823A1, “Method for promoting hematopoietic and mesenchymal cell proliferation and differentiation” (The University of Southern California, priority 1997, published 2002)
